Test results reported in patent publication US20220362120A1, “STABILIZATION OF RESORCINOL COMPOUNDS IN COSMETIC COMPOSITIONS” (Conopco, Inc., d/b/a UNILEVER, priority 2019, published 2022).

What was measured:
[1] = Color evaluation of 4-alkylresorcinol solutions (visual and L*a*b*, Labscan XE) after 2 weeks at R.T.; format: physicochemical; conditions: for Appearance (visual appearance of solution) / L* / b* / a*: after 2 weeks at R.T. (~20-22° C.), DI water:butylene glycol (4:1); for L*: black (L*=0) to white (L*=100); for b*: blue (b*<0) to yellow (b*>0); for a*: green (a*<0) to red (a*>0)
Protocol: Samples for color evaluation were prepared by dissolving 4-hexylresorcinol (200 mg) or 4-ethylresorcinol (200 mg) in DI water:butylene glycol (4:1; 20 ml) to generate a clear colorless homogeneous solution. A portion of each solution (5 ml) was added to a 20 ml scintilation vial containing either niacinamide (B3) (50 mg), AceMet (acetyl methionine) (50 mg) or B3 (50 mg)+AceMet (50 mg) and monitored @ R.T. (˜20-22° C.). After 2 weeks, the color of each solution was assessed visually and L*a*b* measurements determined experimentally using a Labscan XE instrument (Hunter Associates Labs Inc., Reston, Va.) and processed with Universal Software (version 4.10). The L* parameter measures darkness and lightness and ranges from black (L*=0) to white (L*=100). The a* parameter measures color content and intensity ranging from green (a*<0) to neutral grey (a*=0) to red (a*>0). The b* parameter also measures color content and intensity ranging from blue (b*<0) to neutral grey (b*=0) to yellow (b*>0).

[2] = Quantitation of 4-alkyl resorcinols by HPLC (peak area @ 281 nm vs freshly prepared control); format: physicochemical; conditions: for 4-Alkylresorcinol (% of control): after 2 weeks at R.T. (~20-22° C.), HPLC, mean of duplicates, DI water:butylene glycol (4:1)
Protocol: The amount of 4-alkylresorcinol present in each of the samples used for the color measurements was quantitated after 2 weeks @ R.T. (˜20-22° C.) by high performance liquid chromatography (HPLC). An sample aliquot (100 uL) from each of the color measurement solutions was diluted with DI water:acetonitrile (1:1, 900 uL) to generate test samples (1 ml). An aliquot (10 uL) from each test sample was injected into a Waters 2695 Separations Module, chromatographed and separated on a Restek Pinnacle DB C18 (5 um, 4.6×150 mm) column operated at 30° C. and the 4-alkylresorcinols monitored using a Waters 2996 Photodiode Array Detector set @ 281 nm. The mobile phase consisted of water (A) and acetonitrile (B) and optimum separation was achieved using a gradient from 95:5 (A:B) to 5:95 (A:B) in 20 min, followed by isocratic elution at 5:95 (A:B) for 3 min at a flow rate of 1 ml/min. The chromatographic data was processed using Empower 2 software (Waters Corporation, Milford, Mass.). Standard control samples of 4-alkylresorcinols at 1×, 5× higher and 5× lower concentrations were prepared fresh and immediately analysed; standard curves were generated within the test sample range and linearity was confirmed.
All samples were analyzed in duplicate and the mean value reported. The amount of 4-alkylresorcinol present for each test sample after 2 weeks was determined by measuring the chromatographic peak area under the curve @ 281 nm for the 4-alkylresorcinol and expressed as the percent ratio over the corresponding chromatographic peak area under the curve @ 281 nm for the freshly prepared control sample.

SMILES	Appearance (visual appearance of solution) [1]	L* [1]	b* [1]	a* [1]	4-Alkylresorcinol (% of control) [2]	color of solution ([1]; freshly prepared solution)	decrease of the level of HR ([2]; HR solution after 2 weeks) [%]	decomposition of HR ([2]; HR solution with addition of B3, after 2 weeks) [%]	decomposition upon HPLC analysis ([2]; freshly prepared solution)
CCc1ccc(O)cc1O [1% ER, 4-ethylresorcinol]	light orange	82.74	39.57	6.38	96 % of control	–	–	–	–
CCCCCCc1ccc(O)cc1O [1% HR, 4-hexylresorcinol]	reddish-pink	84.77	13.4	11.4	60 % of control	colorless	40	55	no decomposition
